Source: US20040192686A1, “Benzoazine mono-N-oxides and benzoazine 1,4 dioxides and compositions therefrom for the therapeutic use in cancer treatments” (Auckland Uniservices Limited, priority 2003, published 2004)
Values after ≈ are worked out from the molar mass of the structure shown.

Columns and labels:
[1] = tested on: hypoxic (radioresistant) cells in HT29 tumours; assay: HT29 tumour xenograft excision assay: clonogenic survivors 18 hr after radiation and drug; format: in vivo, mice
Experimental: Animals with subcutaneous tumours (ca 300 mg) received whole body radiation (RAD; 20 Gy) to sterilise oxygenated tumour cells. Activity of drugs against the hypoxic survivors was determined by intraperitoneal administration of solutions in 5% DMSO/saline 5 min after radiation, using TPZ alone (133 μmol/kg) or in combination with SR 4317 (1000 μmol/kg). Tumours were excised 18 hr after treatment, dissociated enzymatically, and plated to determine the number of clonogenic survivors. Values are geometric means and error bars are standard errors of the mean. Horizontal lines show historical values for untreated controls and radiation only (solid lines are means, dashed lines are 95% confidence limits. p values were determined by one-way ANOVA using only data within this experiment.
The utility of SR 4317 as a potentiator of the hypoxic cytotoxicity of TPZ was assessed in an in vivo model (HT29 tumour xenografts) as illustrated in FIG. 7. In this experiment tumour response was determined by excising tumours 18 hr after treatment and quantifying the number of clonogenic survivors by plating in vitro. TPZ was administered at a sub-efficacious dose (0.133 mmol/kg), 5 minutes after whole body radiation (20 Gy). […] No significant cytotoxicity was observed when the two compounds were administered in the absence of irradiation, indicating lack of activity against aerobic cells in tumours (FIG. 7).

[2] = tested on: HT29 cells; assay: TPZ potentiation test: IC50 of TPZ with and without potentiator, anoxic HT29 cells; format: cell-based, human; conditions: 4 hr anoxic exposure of HT29 cells
[3] = Approximate solubility limit in Alpha MEM culture medium containing 5% fetal calf serum; format: physicochemical; conditions: plasma or biological fluid, kinetic from dmso stock, dilution from DMSO stock solutions
[4] = tested on: HT-29 MCLs; format: in vitro ADME, human
Experimental: Compounds are added to the donor compartment, along with ^14C-urea as an internal standard, and diffusion into the receiver compartment is monitored by HPLC and scintillation counting.
The concentrations in the Receiver compartment (normalised against the initial concentration in the Donor compartment) are plotted against those of the flux marker ^14C-urea to account for small differences in thickness of the MCLs. The fitted diffusion coefficients for TPZ (n=12) and SR 4317 (n=2) are: […] cm^2 sec^−1, respectively.
The inventors have also investigated the extravascular transport properties (tissue diffusion characteristics) of SR 4317 to assess whether it can diffuse well enough to reach hypoxic cells in tumours efficiently. This study used the multicellular layer (MCL) assay (Hicks et al., Int. J. Radiat. Oncol., Biol., Phys., 1998, 42, 641; Hicks et al., J. Pharmacol. Exper. Ther., 2001, 297, 1088), developed in this laboratory.

[5] = Plasma pharmacokinetics after intraperitoneal administration; format: in vivo, CD-1 mice
Experimental: The plasma pharrmacokinetics of SR 4317 and TPZ were determined in C3H mice, alone and in combination (FIG. 6), to assess whether therapeutic concentrations of SR 4317 can be achieved in mice.

[6] = tested on: HT29 colon carcinoma cells; assay: IC50 assay of potentiator alone, HT29 cells, 4 hr anoxic exposure, sulphorhodamine B staining; format: cell-based, human; conditions: Homo sapiens, HT-29, 4 hr exposure under anoxic conditions, cell density by sulphorhodamine B five days after washing out
[7] = Solubility of SR 4317; format: physicochemical
[8] = tested on: HT29 human colon carcinoma cells; assay: Cytotoxicity (plating efficiency) in stirred single cell suspensions of HT29 cells, anoxic or aerobic; conditions: for Potentiation of the aerobic cytotoxicity of TPZ: HT29 cells, gas phase 5% CO2 in air
Text: Cultures were maintained at <10 ppm O2 under a continuously-flowing stream of 5% CO2 in nitrogen and were sampled at intervals to determine plating efficiency.
Experimental conditions were as for FIG. 2, except that the gas phase was 5% CO2 in air. Values are means and error bars are ranges for duplicate cultures.
Drug exposure time was 1 hr. Error bars represent the range for duplicate determinations.

[9] = tested on: HT29 cells; assay: Radiosensitisation of anoxic HT29 cells; format: cell-based, human; conditions: 0.6 mM of each agent; anoxic HT29 cells irradiated 5 min after drug addition
Experimental: Anoxic cell suspensions were irradiated 5 min after addition of pre-equilibrated anoxic drug solutions. Data are shown for duplicate determinations, and are fitted using a linear-quadratic model

solubility [3] | Transport through hypoxic MCLs [4] | Maximum SR 4317 concentration in plasma ([5]; after intraperitoneal co-administration of TPZ + SR 4317 (750 μmol/kg), mice) | Plasma concentrations in mice ([5]; general statement) | Clearance from plasma ([5]; over the first two hours after co-administration of TPZ and SR 4317, mice) | IC50 [6] | solubility ([7]; aqueous solution, read-out: Aqueous solubility) | solubility ([7]; as stated for the HT29 cell suspension experiment (FIG. 1), read-out: Solubility limit) | TPR (TPZ potentiation ratio) = TPZ IC50 without potentiator/TPZ IC50 with potentiator ([2]; conc of potentiator 0.5 mM) | SMILES | Killing of the (hypoxic) cells surviving radiation ([1]; TPZ alone 0.133 mmol/kg i.p. 5 minutes after whole body radiation (20 Gy), HT29 xenografts, clonogenic survivors at 18 hr) | IC50 ([2]; Homo sapiens, HT-29, mean ± sem, n = 4, read-out: IC50 for TPZ alone) | Activity of radiation + TPZ + SR 4317 compared with radiation alone ([1]; SR 4317 1 mmol/kg added to TPZ 0.133 mmol/kg after 20 Gy, p<0.01 by one way ANOVA) | Difference between radiation+TPZ and radiation+TPZ+SR 4317 ([1]; SR 4317 1 mmol/kg, TPZ 0.133 mmol/kg, 20 Gy, p <0.05) | Potentiation of the cytotoxicity of TPZ to hypoxic tumour cells ([8]; HT29 cells in culture, anoxic (<10 ppm O2), TPZ 30 μM, simultaneous exposure) | Potentiation of the aerobic cytotoxicity of TPZ ([8]; listed as SR 4317) | Potentiation of the aerobic cytotoxicity of TPZ ([8]; listed as SR4317) | Potentiation of TPZ cytotoxicity ([8]; SR 4317 at 100 μM for 1 hr, TPZ 30 μM, anoxic HT29 cells) | Relative dose potency for potentiation of the hypoxic cytotoxicity of TPZ ([8]; TPZ 30 μM, anoxic HT29 cells 5×10^5/ml, drug exposure 1 hr) | Toxicity of SR4317 alone ([8]; anoxic HT29 suspension, 5×10^5 cells/ml, up to its solubility limit (ca 1 mM)) | Relative potency for radiosensitization of hypoxic HT29 cells [9]
– | – | – | – | – | – | – | – | – | Nc1n[n+]([O-])c2ccccc2[n+]1[O-] [TPZ, tirapazamine, reference compound] | did not result in statistically significant killing | 6.8 µM | – | – | – | – | – | – | – | – | –
800 µM (≈ 130 µg/mL) | faster than for TPZ | ~200 µM | relatively low | slow clearance | > 500 µM | ~800 µM (≈ 130 µg/mL) | ~1000 µM (≈ 162 µg/mL) | 2.0 | Nc1nc2ccccc2[n+]([O-])n1 [Compound 3, 1,2,4-Benzotriazin-3-amine 1-oxide] | – | – | greater than radiation alone | significant | increased quite markedly | does not potentiate | lack of potentiation | significant potentiation | SR 4317>metronidazole=misonidazole | non-toxic | misonidazole>metronidazole=SR4317
